Measured values taken from patent US20100004469A1, “ANTIMICROBIAL AGENTS AND MICROBICIDAL AGENTS” (KABUSHIKI KAISHA TOYOTA JIDOSHOKKI, priority 2006, published 2010).

What was measured:
Format in all cases: cell-based
[1] = system: Staphylococcus aureus subsp. aureus (NBRC 13276); assay: Test for antimicrobial activity with neutralization, viable cell count (Example 2); conditions: 20% aqueous solution, neutralized
Procedure: (§1) After said strains were cultured in SCD agar medium at 35±2° C. for 18 to 24 hours, inocula were prepared by suspending the stains in sterile purified water and adjusting the turbidity so as to correspond with No. 1 MacFarland. Using agar plate, the concentrations of the inocula were measured according to the agar plate mixed dilution method (Table 3). 3 mL of each of 20% aqueous solution of the test compound, a stock solution of a comparative compound and sterile water, (control) was prepared (n=1). 0.03 mL of said inocula was inoculated into each of the test solutions at a room temperature. Immediately after, 15 minutes after and 180 minutes after the inoculations, neutralization was performed under the following conditions. 0.5 mL of the test solution was added to 4.5 mL of sterile sodium hydrate solution at the concentration of 0.25 mol/L (sodium hydrate; manufactured by Wako Pure Chemical Industries, Ltd.), and mixed. Then, 45 mL of a sterile phosphate buffer (Pro-media MV2-1000, manufactured by ELMEX) was immediately added and mixed. 0.5 mL of the test solution was added to 4.5 mL of sterile sodium hydrate solution at the concentration of 2.0 mol/L, and mixed. Then, 45 mL of a sterile phosphate buffer was immediately added and mixed. A ten-fold dilution series of each of the neutralization solution was prepared. Then, the number of the viable cells therein was measured and it was converted to the number of viable cells per 1 mL of the test solutions or control. The number of viable cell was measured according to “Viable cell count; the agar plate mixed dilution method in the Japanese Pharmacopoeia, 14th revised edition”.

[2] = system: Salmonella Enteritidis (NBRC 3313); assay: as above; conditions: 20% aqueous solution, neutralized
Procedure: as §1

[3] = system: Escherichia coli (NBRC 3972); assay: as above; conditions: 20% aqueous solution, neutralized
Procedure: as §1

[4] = system: Staphylococcus aureus subsp. aureus (NBRC 13276); assay: Test for antimicrobial activity, viable cell count (Example 1); conditions: room temperature
Procedure: (§2) After said strains were cultured in SCD agar medium at 35±2° C. for 18 to 24 hours, inocula were prepared by suspending the cultured stains in sterile purified water and adjusting the turbidity so as to correspond with No. 1 MacFarland. Using agar plates, the concentrations of the inocula were measured according to the agar plate mixed dilution method (Table 1). 3 mL of each of the 10%, 1.0% and 0.1% aqueous solutions of the test compound, and of sterile purified water (control) were prepared (n=1). 0.03 mL of said inocula was inoculated into each of the test solutions at room temperature. Immediately after, 15 minutes after, and 180 minutes after the inoculations, 0.5 mL of each of the test solutions was added to 49.5 mL of a sterile phosphate buffer (Pro-media MV2-1000, manufactured by ELMEX), and mixed. A ten fold dilution series of each of the mixtures was constructed. Then, the number of the viable cells therein were measured, and then it was converted to the number of viable cells per 1 mL of the test solutions or control. The number of viable cell was measured according to “Viable cell count; the agar plate mixed dilution method in the Japanese Pharmacopoeia, 14th revised edition”.

[5] = system: Salmonella Enteritidis (NBRC 3313); assay: as above; conditions: room temperature
Procedure: as §2

[6] = system: Escherichia coli (NBRC 3972); assay: as above; conditions: room temperature
Procedure: as §2

O=C(O)c1cc(C(=O)O)oc(=O)c1 [test compound, 2H-pyran-2-on-4,6-dicarbonic acid]
<100 cfu/mL: number of viable cells, Measured 15 min. after inoculation ([1]; 15 min. after inoculation) | number of viable cells, Measured 180 min. after inoculation ([1]; 180 min. after inoculation) | number of viable cells, Measured immediately after inoculation ([1]; immediately after inoculation) | number of viable cells, Measured 15 min. after inoculation ([2]; 15 min. after inoculation) | number of viable cells, Measured 180 min. after inoculation ([2]; 180 min. after inoculation) | number of viable cells, Measured immediately after inoculation ([2]; immediately after inoculation) | number of viable cells, Measured 15 min. after inoculation ([3]; 15 min. after inoculation) | number of viable cells, Measured 180 min. after inoculation ([3]; 180 min. after inoculation) | number of viable cells, Measured immediately after inoculation ([3]; immediately after inoculation) | number of viable cells, Measured 15 min. after inoculation ([4]; 0.1% aqueous solution) | number of viable cells, Measured 180 min. after inoculation ([4]; 0.1% aqueous solution) | number of viable cells, Measured 15 min. after inoculation ([4]; 1.0% aqueous solution) | number of viable cells, Measured 180 min. after inoculation ([4]; 1.0% aqueous solution) | number of viable cells, Measured 15 min. after inoculation ([4]; 10% aqueous solution) | number of viable cells, Measured 180 min. after inoculation ([4]; 10% aqueous solution) | number of viable cells, Measured immediately after inoculation ([4]; 10% aqueous solution) | number of viable cells, Measured 15 min. after inoculation ([5]; 0.1% aqueous solution) | number of viable cells, Measured 180 min. after inoculation ([5]; 0.1% aqueous solution) | number of viable cells, Measured 15 min. after inoculation ([5]; 1.0% aqueous solution) | number of viable cells, Measured 180 min. after inoculation ([5]; 1.0% aqueous solution) | number of viable cells, Measured immediately after inoculation ([5]; 1.0% aqueous solution) | number of viable cells, Measured 15 min. after inoculation ([5]; 10% aqueous solution) | number of viable cells, Measured 180 min. after inoculation ([5]; 10% aqueous solution) | number of viable cells, Measured immediately after inoculation ([5]; 10% aqueous solution) | number of viable cells, Measured 15 min. after inoculation ([6]; 0.1% aqueous solution) | number of viable cells, Measured 180 min. after inoculation ([6]; 0.1% aqueous solution) | number of viable cells, Measured 15 min. after inoculation ([6]; 1.0% aqueous solution) | number of viable cells, Measured 180 min. after inoculation ([6]; 1.0% aqueous solution) | number of viable cells, Measured immediately after inoculation ([6]; 1.0% aqueous solution) | number of viable cells, Measured 15 min. after inoculation ([6]; 10% aqueous solution) | number of viable cells, Measured 180 min. after inoculation ([6]; 10% aqueous solution) | number of viable cells, Measured immediately after inoculation ([6]; 10% aqueous solution)
10,000 cfu/mL: number of viable cells, Measured immediately after inoculation ([6]; 0.1% aqueous solution)
12,000 cfu/mL: number of viable cells, Measured immediately after inoculation ([5]; 0.1% aqueous solution)
11,000 cfu/mL: number of viable cells, Measured immediately after inoculation ([4]; 0.1% aqueous solution)
5,000 cfu/mL: number of viable cells, Measured immediately after inoculation ([4]; 1.0% aqueous solution)
